In test [1] the test system is P. acnes. Briefly: MIC and MBC against 16 clinical isolates of P. acnes (broth microdilution, no sebum). To be noted: for MIC50 / MIC90 / MBC: Cutibacterium acnes; for MIC Range / MBC Range: NB-00X formulations as μg CPC/ml. It is filed as cell-based, Propionibacterium acnes. The procedure:
The nanoemulsions (“NB-00X”) comprised, in an aqueous medium, soybean oil, Tween 20® as a nonionic surfactant, ethanol, cetylpyridinium chloride (CPC) as a cationic surfactant, EDTA, and water, and optionally, a thickening agent for the gel formulation.
Each dilution contained varying concentrations of soybean oil, Tween 20®, ethanol, CPC, and EDTA. Combination products were also evaluated; stock emulsions containing NB-00X gel (3 mg CPC/ml)+2% salicyclic acid or NB-00X gel+0.5% benzoyl peroxide (BPO) were serially diluted two-fold and each concentration was tested against 16 P. acnes isolates. In general, the standard methodology was followed for MIC and MBC determination.
Weighing of drugs and potency calculations were done as prescribed by Clinical and Laboratory Standards Institute (1). Dimethyl sulfoxide (DMSO) was used to prepare stock solutions of the water-insoluble compound tetracycline at 100× concentrations. […] Stock solutions of chlorhexidine and NB-00X were prepared at a 4× concentration in DI water.
To prepare intermediate concentrations, 100× stock solutions were serially diluted 1:1 using DMSO or DI water. Final concentrations were made by 1:50 or 1:1 dilutions in Wilkin Chalgren media (1) to give 2× of the test concentrations, with final DMSO concentrations at 1%. 50 μl of these drug concentrations were transferred to 96-well plates using multi-channel pipettes.
P. acnes strains grown on sheep blood agar for 24-48 hrs at 35° C. were used as the sources of inocula for susceptibility studies as per Clinical and Laboratory Standards Institute. […] Within 15 minutes, each well (except the negative growth controls) of the microtiter tray containing the serial dilutions of test compounds received 50 μl of inoculum, resulting into a log2 dilution of both drug and bug in each well. Verification of the colony-forming units in the inoculum was performed by diluting the adjusted inoculum preparation to […] and plating 100 μl on blood agar plate.
Microtiter and blood agar plates were incubated at 35-37° C. for 48 h in a 7.0 L AnaeroPack Jar (Mitsubishi gas chemical; No. 50-70) fitted with an anaerobic gas generating system (Misubishi, No. 10-01) and a dry anaerobic indicator strip (BBL, Becton, Dickinson & Co. #271051). MICs were read visually using a 96-well plate reader fitted with a magnifying mirror (Biodesign of New York). Because of the opacity of benzoyl peroxide, 20 μl of Cell Titer Blue (alamar blue from Promega G8080) was added after 48 hrs; the plates were incubated for an additional hour prior to reading. Colony-forming units were counted after 72 h of incubation to ensure that the initial inocula were between 2-5×10^6 cfu/ml.
The minimal bactericidal concentrations (MBC) for P. acnes were determined by plating 10 μl from the well determined to be the MIC plus 4 wells above the MIC on blood-supplemented Mueller-Hinton agar plate. Inoculated petri plates were incubated for 72 h at 35° C. under anaerobic conditions.
(In general: In broth dilution the organism is exposed to a series of concentrations in liquid medium.)

Test [2] deals with P. acnes. Description: MIC and MBC against 16 P. acnes isolates in the presence of 50% artificial sebum. The settings on record: for MIC90: Cutibacterium acnes, 16 P. acnes isolates, 50% artificial sebum; for impact of sebum on microbiological activity (MIC90/MBC90) / increase of MBC90/MBCs in the presence of sebum / increase of MIC90 in the presence of sebum: 50% sebum versus no sebum; for impact of sebum on microbiological activity (MIC90/MBC90): up to the concentrations tested. It is filed as cell-based, Propionibacterium acnes. The protocol:
The nanoemulsions (“NB-002”) comprised, in an aqueous medium, soybean oil, Tween 20® as a nonionic surfactant, ethanol, cetylpyridinium chloride (CPC) as a cationic surfactant, EDTA, and water. Artificial sebum was prepared by adding the entire ingredients given in the Table 6 and heating at 60° C. in a water bath, with intermittent stirring until all solids melted resulting in to a clear yellow liquid ([…] et al., “Diffusion properties of model compounds in artificial sebum. Int. J. Pharm., 345:88-94 (2007)). To prepare intermediate concentrations, 100× stock solutions were serially diluted 1:1 using DMSO or DI water. Final concentrations were made by 1:50 dilutions in Wilkin Chalgren media to give 2× of the final test concentrations, with final DMSO concentrations at 1%. 50 μl of these drug concentrations were transferred to 96-well plates using multi-channel pipettes. Sebum was prewarmed to 50° C. and each well received 45 μl of sebum. After ten minutes at 35° C., five microliters of a P. acnes culture at 10^8 colony-forming units/ml was added to each well.

[3] abbreviates: 16 P. acnes isolates, no sebum, read-out: MBC50.
[4] abbreviates: 16 P. acnes isolates, no sebum, read-out: MBC90.
[5] abbreviates: 16 P. acnes isolates, no sebum, listed as chlorhexidine.

Where two headings read alike, the source gives them in different places.

Consider `CCC[C@@H]1C[C@@H](C(=O)N[C@@H]([C@H]2O[C@H](SC)[C@H](O)[C@@H](O)[C@H]2O)[C@H](C)Cl)N(C)C1` [Clindamycin, clindamycin], for which the MIC50 with P. acnes [1] (16 P. acnes isolates, no sebum) worked out at 2 µg/mL. Besides, the MIC90 in the test on P. acnes [1] (16 P. acnes isolates, no sebum) was over 64 µg/mL; in the test with P. acnes [2], over 64 µg/mL. Further, the MBC in the test on P. acnes [1] (setting [3]) and with P. acnes [1] (setting [4]) was over 64 µg/mL throughout.

Take `CC[C@H]1OC(=O)[C@H](C)[C@@H](O[C@H]2C[C@@](C)(OC)[C@@H](O)[C@H](C)O2)[C@H](C)[C@@H](O[C@@H]2O[C@H](C)C[C@H](N(C)C)[C@H]2O)[C@](C)(O)C[C@@H](C)C(=O)[C@H](C)[C@@H](O)[C@]1(C)O` [Erythromycin, erythromycin]: the MIC50 with P. acnes [1] (16 P. acnes isolates, no sebum) was 2 µg/mL. In addition, the MBC in the test with P. acnes [1] (setting [3]) is over 64 µg/mL. In addition, the “impact of sebum on microbiological activity (MIC90/MBC90)” value in the test on P. acnes [2] is recorded as “did not impact”.

Take `O=C(O)c1ccccc1O` [Salicylic acid]: in the test with P. acnes [1] (16 P. acnes isolates, no sebum), the MBC90 was found to be 2000 µg/mL, the “MIC Range” value was in the range of 500 to 1000 µg/mL, the MIC50 is 1000 µg/mL and the MIC90 worked out at 1000 µg/mL. For the same molecule, the MBC in the test with P. acnes [1] (setting [3]) worked out at 2000 µg/mL. Besides, the MBC in the test on P. acnes [1] (setting [4]) was 2000 µg/mL. In the test with P. acnes [2], the “impact of sebum on microbiological activity (MIC90/MBC90)” value is recorded as “not significantly impacted” and the MIC90 amounted to 1000 µg/mL.

In the case of `O=C(OOC(=O)c1ccccc1)c1ccccc1` [Benzoyl peroxide, benzoyl peroxide], in the test with P. acnes [1] (16 P. acnes isolates, no sebum), the “MBC Range” value is 100 to 400 µg/mL, the “MIC Range” value is on record as “≦50-100 μg/ml”, the MIC50 was 50 µg/mL and the MIC90 stood at 50 µg/mL. In the test with P. acnes [1] (setting [3]), the MBC is 200 µg/mL. For the same molecule, the MBC in the test on P. acnes [1] (setting [4]) amounted to 200 µg/mL. In addition, in the test with P. acnes [2], the “increase of MBC90/MBCs in the presence of sebum” value is reported as “eight-fold”, the “increase of MIC90 in the presence of sebum” value was “eight-fold” and the MIC90 is 400 µg/mL.

On to `[H]/N=C(\N/C(=N/[H])NCCCCCCNC(=N)NC(=N)Nc1ccc(Cl)cc1)Nc1ccc(Cl)cc1` [Chlorhexidine, chlorhexidine], for which, in the test with P. acnes [1] (16 P. acnes isolates, no sebum), the “MBC Range” value is “≦10 μg/ml”, the “MIC Range” value was “≦10 μg/ml”, the MIC50 was at most 10 µg/mL and the MIC90 is at most 10 µg/mL. Also, in the test with P. acnes [1] (setting [5]), the “MBC Range” value was at most 10 µg/mL and the “MIC Range” value was at most 10 µg/mL. The MBC with P. acnes [1] (setting [3]) is at most 10 µg/mL. Besides, the MBC in the test with P. acnes [1] (setting [4]) is at most 10 µg/mL. Further, in the test with P. acnes [2], the “increase of MBC90/MBCs in the presence of sebum” value is “at least 125 fold”, the “increase of MIC90 in the presence of sebum” value was “at least eight-fold” and the MIC90 came out at 78 µg/mL.

As to `CN(C)[C@@H]1C(O)=C(C(N)=O)C(=O)[C@@]2(O)C(O)=C3C(=O)c4c(O)cccc4[C@@](C)(O)[C@H]3C[C@@H]12` [Tetracycline, tetracycline], the MIC50 in the test with P. acnes [1] (16 P. acnes isolates, no sebum) is 1 µg/mL. Also, the MIC90 was over 32 µg/mL with P. acnes [1] (16 P. acnes isolates, no sebum) and 32 µg/mL in the test with P. acnes [2]. The MBC in the test on P. acnes [1] (setting [3]) is over 16 µg/mL; in the test on P. acnes [1] (setting [4]), over 32 µg/mL. Besides, in the test with P. acnes [1] (share of the P. acnes isolates resistant to the drug), the isolates resistant is on record as 44%.

What is called MIC50 is the lowest concentration that inhibits either 50% of growth or 50% of the strains tested, depending on the study. For orientation: MIC90 means an inhibitory concentration at the 90% level, which refers to growth in some studies and to a panel of isolates in others.
